Data taken from PMC4257560, “Synthesis and Functional Characterization of Substituted Isoquinolinones as MT2-Selective Melatoninergic Ligands” (PLoS ONE, 2014).
Several values for one entry are separate records, joined by “and”; a condition that tells them apart may be missing. Equal entries are not always repeated. Entries after “also recorded” stand apart in the source; their conditions may differ. Where two headings read alike, the source gives them in different places.

Assays:
MT2 [1] = target: T1, MT2 (Homo sapiens, UniProt P49286); test: biochemical; settings: for Ki: MT2 Ki, calculated from mean pIC50 (Cheng-Prusoff), 1 nM [3H]melatonin, intact CHO cells; for Emax: read-out: MT2 %Resp±SEM (percentage of melatonin-mediated displacement of radioligand binding)
T1 sequence (P49286 1-362): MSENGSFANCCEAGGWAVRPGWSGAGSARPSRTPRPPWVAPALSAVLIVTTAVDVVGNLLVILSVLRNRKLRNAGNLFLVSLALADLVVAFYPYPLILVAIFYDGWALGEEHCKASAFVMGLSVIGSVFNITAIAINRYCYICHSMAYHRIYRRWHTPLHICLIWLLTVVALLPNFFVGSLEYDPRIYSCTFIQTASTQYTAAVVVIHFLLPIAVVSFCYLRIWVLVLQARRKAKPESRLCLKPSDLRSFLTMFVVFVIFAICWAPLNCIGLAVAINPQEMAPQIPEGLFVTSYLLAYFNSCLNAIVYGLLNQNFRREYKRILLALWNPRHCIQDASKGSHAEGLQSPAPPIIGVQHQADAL
Description: (§5) Competitive receptor binding characteristics of melatonin and the 15 tested compounds towards human MT1 and MT2 stably expressed in Chinese hamster ovary (CHO) cells were determined using intact cell preparation pre-incubated with 1 nM [^3H]melatonin.
(§6) Individual melatonin receptor subtype (either MT1 or MT2) was stably co-expressed with a G protein chimera 16z25 in Chinese hamster ovary (CHO) cells, hereafter denoted as CHO-hMT1 and CHO-hMT2, respectively. […] Single cell-derived colonies of the stable lines with sufficiently high receptor density and robust responses in the fluorometric assay (as described below) were isolated from the pool of transfected cell. Usage of these clonal lines was limited to 15 passages to prevent degradation of signal detection.
(§7) Competitive binding assays were performed as described [26]. Cells were suspended in binding buffer (50 mM Tris, 2 mM MgCl2, 1 mM EGTA, pH 7.4) in the density of 1.5×10^5 cell/ml. 1 nM [^3H]melatonin and increasing concentrations of a tested compound was included. Cells were incubated at 4°C for 60 min with intermittent agitation and the reaction was stopped by rapid filtration through GF/C filters pre-soaked in 10 mM Tris, pH 7.4 and washed with 1 ml of prechilled binding buffer. Retained radioactivity was measured with Wallac 1450 Microbeta Jet scintillation counter. Competition curves were drawn as one-site competition nonlinear regression model using GraphPad Prism 3.03 to the data which were means ± SEM of 3–4 independent experiments performed in duplicates. In every assay, melatonin was included as standard reference with highly reproducible Ki values, which were calculated using the Cheng-Prusoff equation.

MT1 [2] = target: T2, MT1 (Homo sapiens, UniProt P48039); settings: for MT1 pIC50±SEM: 4°C 60 min, mean ± SEM of 3–5 trials, NSB = no specific binding for up to 30 µM
Description: as §5, §6, §7

MT2 [3] = target: T1, MT2; test: Intracellular Ca2+ mobilization (FLIPR) in MT2-CHO cells co-expressing 16z25; assay type: cell-based; parameters: expressed in transfected cells; settings: for Emax: percentage of melatonin (MT)-mediated stimulation of Ca2+ signal, read-out: MT2 %Resp ±SEM, Ca2+ signal
Description: (§1) Tested compounds in different concentrations were diluted in assay buffer in 5× of the final desired concentrations in a V-bottomed microplate, and both the cell and compound plates were put into the fluorometric imaging plate reader FLIPR^TETRA (Molecular Devices, Sunnyvale, CA). […] The peak of the time course of fluorescence changes was expressed in relative fluorescence units (RFU). Dose response curves were constructed by non-linear regression using GraphPad Prism 3.

MT1 [4] = target: T2, MT1; test: Inhibition of forskolin-stimulated cAMP accumulation in MT1-CHO cells; assay type: cell-based; parameters: expressed in transfected cells; settings: for inhibition of cAMP levels in MT1-CHO cells (in words): forskolin-stimulated; for MT1 %Inhmax ±SEM: maximal percentage inhibition of the forskolin-elevated cAMP level, MT1-CHO; for MT1 IC50, inhibition of cAMP production: MT1-CHO cells, 50 µM forskolin, calculated from mean pIC50, NSR = no significant response for up to 10 µM
Description: (§2) Both MT1 and MT2 are classified as Gi-coupled receptors with their activation leading to inhibition of intracellular cAMP production. The ability of the tested compounds to activate the endogenously expressed Gi-mediated inhibition of cAMP production was therefore examined.
(§3) All the responses were expressed as the percentage of that induced by forskolin alone (as 100%).
(§4) 2×10^5 cells were seeded in each well of 12-well plates and grown for overnight. Each well was labeled with 1 ml of [^3H]adenine (1 µCi/ml) in F-12K medium containing 1% FBS (vol/vol) for overnight. The labeling media were then replaced by 1 ml of 20 mM HEPES-buffered F-12K containing 1 mM isobutylmethylxanthine (IBMX) and the tested compounds at desired concentrations, and incubated at 37°C for 30 min. The reaction was stopped by aspiration and adding 1 ml prechilled 5% trichloroacetic acid (w/v) with 1 mM ATP, and stored at 4°C for 30 min. [^3H]cAMP was extracted from the pool of labeled adenosine nucleotides by sequential ion-exchange chromatography as previously described. The radioactivity of labeled cAMP and total labeled nucleotide fractions separated by chromatography were estimated by scintillation counting. Inhibition curves were constructed by non-linear regression using GraphPad Prism 3.

MT2 [5] = target: T1, MT2; test: Inhibition of forskolin-stimulated cAMP accumulation in MT2-CHO cells; assay type: cell-based; parameters: expressed in transfected cells; settings: for IC50: MT2-CHO cells, 50 µM forskolin, calculated from mean pIC50, read-out: MT2 IC50, inhibition of cAMP production; for MT2 %Inhmax ±SEM: maximal percentage inhibition of the forskolin-elevated cAMP level, MT2-CHO
Description: as §2, §3, §4

MT1 [6] = target: T2, MT1; test: Intracellular Ca2+ mobilization (FLIPR) in MT1-CHO cells co-expressing 16z25; assay type: cell-based; parameters: expressed in transfected cells; settings: for Ca2+ mobilization activity at MT1 (in words): MT1-CHO cells, maximal concentration tested 10 µM
Description: as §1

MT2 [7] = target: T1, MT2; settings: for displacement of pre-incubated [3H]melatonin at MT2 (in words): competitive binding, intact CHO cells
Description: as §5, §6, §7

MT1 [8] = target: T2, MT1; test: biochemical; settings: for Emax: read-out: MT1 %Resp±SEM (percentage of melatonin-mediated displacement of radioligand binding)
Description: as §5, §6, §7

[9] = 1 nM [3H]melatonin, intact CHO cells
[10] = MT2-CHO cells, FLIPR, calculated from mean pEC50, NSR = no significant response for up to 30 µM, read-out: MT2 EC50, Ca2+ mobilization
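For MT1 %Resp±SEM (percentage of melatonin-mediated displacement of radioligand binding) in this document: competitive radioligand displacement on intact CHO cells stably co-expressing human MT1 together with the G protein chimera 16z25, using rising concentrations of each compound.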
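For MT1 pIC50±SEM in this document: competitive radioligand displacement on intact CHO cells stably co-expressing human MT1 together with the G protein chimera 16z25, using rising concentrations of each compound.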
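For Selectivity, ratio Ki(MT1)/Ki(MT2) in this document: competition binding on intact CHO cells stably co-expressing human MT2 with G protein chimera 16z25, displacing [3H]melatonin at 4°C over 60 min, melatonin run as reference.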
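For displacement of pre-incubated [3H]melatonin at MT2 (in words) in this document: competition binding on intact CHO cells stably co-expressing human MT2 with G protein chimera 16z25, displacing [3H]melatonin at 4°C over 60 min, melatonin run as reference.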
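For selectivity toward MT2 over MT1 in this document: competition binding on intact CHO cells stably co-expressing human MT2 with G protein chimera 16z25, displacing [3H]melatonin at 4°C over 60 min, melatonin run as reference.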

T2 sequence (P48039 whole entry): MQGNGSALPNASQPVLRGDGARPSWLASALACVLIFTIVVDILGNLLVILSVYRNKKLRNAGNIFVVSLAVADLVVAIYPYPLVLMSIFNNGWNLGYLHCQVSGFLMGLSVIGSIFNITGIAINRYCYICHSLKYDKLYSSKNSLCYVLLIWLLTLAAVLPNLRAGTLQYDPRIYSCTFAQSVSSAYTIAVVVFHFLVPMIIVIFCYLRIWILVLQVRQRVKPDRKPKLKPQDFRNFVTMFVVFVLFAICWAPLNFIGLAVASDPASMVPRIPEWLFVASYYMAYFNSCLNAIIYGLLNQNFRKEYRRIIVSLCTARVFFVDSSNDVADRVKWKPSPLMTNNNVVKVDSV

Row | Compound | IC50 (MT2 [1]) | Ki (MT2 [1]) | Emax (MT2 [1]) | MT1 pIC50±SEM (MT1 [2]; [9]) | EC50 (MT2 [3]; [10]) | Emax (MT2 [3]; MT2) | melting point | IC50 (MT2 [5]) | MT2 %Inhmax ±SEM (MT2 [5]) | MT1 IC50, inhibition of cAMP production (MT1 [4]) | Ca2+ mobilization activity at MT1 (in words) (MT1 [6]) | IC50 (MT1 [8]) | Emax (MT1 [8]) | Selectivity, ratio Ki(MT1)/Ki(MT2) (MT2 [7]) | other results
1 | COc1cc2c(=O)n(C)ccc2cc1OCc1cc(C)cc(C)c1 [7g, 6-(3,5-Dimethyl-benzyloxy)-7-methoxy-2-methylisoquinolin-1(2H)-one] | 3470 nM | 1050 nM | 86 ± 2% | NSB | 110 nM | 83 ± 6% | – | – | – | – | – | – | – | – | –
2 | COc1cccc(COc2cc3c(=O)n(C)ccc3cc2OC)c1 [14b, 6-Methoxy-7-(3-methoxy-benzyloxy)-2-methylisoquinolin-1(2H)-one] | 1000 nM | 302 nM | 92 ± 3% | NSB | 48.9 nM | 96 ± 16% | – | 69.4 nM | 71±6% | NSR | could not produce any activity | – | – | – | fold less potent than 7b (EC50, Ca2+ signal, MT2) (MT2 [3]; relative to 7b, MT2-CHO): > 160 fold; displacement of pre-incubated [3H]melatonin at MT2 (in words) (MT2 [7]): completely displaced
3 | COc1cc(COc2cc3c(=O)n(C)ccc3cc2OC)cc(OC)c1 [14c, 7-(3,5-Dimethoxy-benzyloxy)-6-methoxy-2-methylisoquinolin-1(2H)-one] | 18200 nM | 5490 nM | 94 ± 11% | NSB | 228 nM | 71 ± 17% | – | 326 nM | 58±3% | NSR | could not produce any activity | – | – | – | Ca2+ mobilization activity at MT2 (in words) (MT2 [3]; MT2-CHO cells, FLIPR): partial efficacy; fold less potent than 7c (Ca2+ signal, MT2) (MT2 [3]; relative to 7c, MT2-CHO): 11 fold
4 | COc1ccc2c(=O)n(C)ccc2c1OCc1ccccc1 [15a, 5-Benzyloxyl-6-methoxy-2-methylisoquinolin-1(2H)-one] | 1200 nM | 362 nM | 85 ± 8% | – | 215 nM | 70 ± 9% | 125 to 127 °C | – | – | – | – | 9120 nM | 84 ± 10% | 5.72 | Ki (MT1 [8]): 2070 nM
5 | COc1cccc(COc2c(OC)ccc3c(=O)n(C)ccc23)c1 [15b, 6-Methoxy-5-(3-methoxy-benzyloxy)-2-methyl-2H-isoquinolin-1-one] | 5.5 nM | 1.7 nM and 1.66 nM | 85 ± 8% | – | – | 89 ± 20% | – | 0.81 nM | 61±4% | NSR | could not produce any activity; also recorded: totally inactive | 13200 nM | 71 ± 13% | 1800 | inhibition of cAMP levels in MT1-CHO cells (in words) (MT1 [4]): completely inactive; Ki (MT1 [2]; read-out: MT1 Ki, calculated from mean pIC50 (Cheng-Prusoff), 1 nM [3H]melatonin, intact CHO cells): 2980 nM; EC50 (MT2 [3]; MT2-CHO cells, FLIPR, mean ± SEM of 3–5 trials, read-out: MT2 pEC50 ±SEM, Ca2+ mobilization (converted)): 0.145 nM
6 | COc1ccc2[nH]cc(CCNC(C)=O)c2c1 [MT, N-acetyl-5-methoxytryptamine, reference compound] | – | – | – | – | – | – | – | – | – | – | – | – | – | – | MT1 %Inhmax ±SEM (MT1 [4]): 59±2%; MT1 %Inhmax ±SEM (MT1 [4]; listed as Melatonin): 60–70%; MT1 %Resp±SEM (percentage of melatonin-mediated displacement of radioligand binding) (MT1 [2]; relative to melatonin (MT)-mediated displacement): 95±2%; MT1 %Resp ±SEM, Ca2+ signal (MT1 [6]): 100±26%
7 | COc1cc2ccn(C)c(=O)c2cc1O [compound 12, 7-Hydroxy-6-methoxy-2-methylisoquinolin-1(2H)-one] | – | – | – | – | – | – | – | – | – | – | – | – | – | – | Emax at 10 µM (MT1 [6]; at 10 µM, partial activation, data not shown, read-out: maximal response, Ca2+ mobilization, MT1): 36%; Emax at 10 µM (MT2 [3]; MT2, at 10 µM, partial activation, data not shown, read-out: maximal response, Ca2+ mobilization, MT2): 53%

Further lines, with some results ahead:

Row | IC50 (MT2 [1]) | Ki (MT2 [1]) | Emax (MT2 [1]) | MT1 pIC50±SEM (MT1 [2]; [9]) | EC50 (MT2 [3]; [10]) | Emax (MT2 [3]; MT2) | melting point | IC50 (MT2 [5]) | MT2 %Inhmax ±SEM (MT2 [5]) | MT1 IC50, inhibition of cAMP production (MT1 [4]) | Ca2+ mobilization activity at MT1 (in words) (MT1 [6]) | IC50 (MT1 [8]) | Emax (MT1 [8]) | Selectivity, ratio Ki(MT1)/Ki(MT2) (MT2 [7]) | Compound | other results
8 | 2820 nM | 852 nM | 78 ± 7% | NSB ^c | 163 nM | 84 ± 20% | 102 to 104 °C | – | – | – | – | – | – | – | COc1cc2c(=O)n(C)ccc2cc1OCc1ccccc1 [7a, 6-Benzyloxy-7-methoxy-2-methylisoquinolin-1(2H)-one] | concentration triggering Ca2+ signals exclusively in MT2-CHO cells (MT2 [3]; from concentration response curves, Figure 4): around 1 µM
9 | 2240 nM | 674 nM | 79 ± 5% | NSB | 25.7 nM | 85 ± 22% | 150 to 152 °C | 247 nM | 59±5% | – | – | – | – | – | COc1ccccc1COc1cc2ccn(C)c(=O)c2cc1OC [7d, 7-Methoxy-6-(2-methoxy-benzyloxy)-2-methylisoquinolin-1(2H)-one] | inhibition of cAMP levels in MT1-CHO cells (in words) (MT1 [4]): observable inhibition; MT1 %Inhmax ±SEM (MT1 [4]): 33±13%; IC50 (MT1 [4]; read-out: MT1 IC50, inhibition of cAMP production): 396 nM; reduction of ability to trigger Ca2+ signal on moving methoxy from meta to ortho (vs 7b) (MT2 [3]; MT2-CHO): 2 orders of magnitude
10 | 141 nM | 42 nM | 94 ± 13% | – | 4.08 nM | 85 ± 19% | 85 to 86 °C | 40.6 nM | 64±3% | NSR | could not produce any activity | 9330 nM | 63 ± 4% | 50.7 | COc1cc(COc2c(OC)ccc3c(=O)n(C)ccc23)cc(OC)c1 [15c, 5-(3,5-Dimethoxy-benzyloxy)-6-methoxy-2-methylisoquinolin-1(2H)-one] | Ki (MT1 [8]): 2130 nM; fold more potent than 7c (Ca2+ signal, MT2) (MT2 [3]; relative to 7c, MT2-CHO): 5 fold; selectivity toward MT2 over MT1 (MT2 [7]; binding, Ki ratio): 51 fold; displacement of pre-incubated [3H]melatonin at MT2 (in words) (MT2 [7]): almost complete displacement
11 | 9550 nM | 2890 nM | 74 ± 11% | – | 128 nM | 40 ± 17% | – | – | – | – | – | 3390 nM | 34 ± 5% | 0.27 | COc1ccc2c(=O)n(C)ccc2c1OCc1ccc(C)cc1 [15d, 6-Methoxy-2-methyl-5-(4-methyl-benzyloxy)-isoquinolin-1(2H)-one] | Ki (MT1 [8]): 770 nM
